Laboratory results taken from patent US20080194701A1, “Bifunctional Enzyme with Y-Glutamylcysteine Synthetase and Glutathione Synthetase Activity and Uses Thereof” (priority 2004, published 2008).

Legend:
S. agalactiae γ-GCS-GS [1] = molecular target: T1, S. agalactiae γ-GCS-GS (Streptococcus agalactiae serotype V, UniProt Q8DXM9); test: γ-GCS activity assay based on ADP formation, S. agalactiae γ-GCS-GS; format: biochemical; set-up: corresponded to full-length S. agalactiae γ-GCS-GS with an N-terminal His8-tag; made in house; host or cells: E. coli SG13009 with pQE30-gshAB plus pREP4 or pRARE; details: γ-GCS activity
T1 sequence (Q8DXM9 1-750): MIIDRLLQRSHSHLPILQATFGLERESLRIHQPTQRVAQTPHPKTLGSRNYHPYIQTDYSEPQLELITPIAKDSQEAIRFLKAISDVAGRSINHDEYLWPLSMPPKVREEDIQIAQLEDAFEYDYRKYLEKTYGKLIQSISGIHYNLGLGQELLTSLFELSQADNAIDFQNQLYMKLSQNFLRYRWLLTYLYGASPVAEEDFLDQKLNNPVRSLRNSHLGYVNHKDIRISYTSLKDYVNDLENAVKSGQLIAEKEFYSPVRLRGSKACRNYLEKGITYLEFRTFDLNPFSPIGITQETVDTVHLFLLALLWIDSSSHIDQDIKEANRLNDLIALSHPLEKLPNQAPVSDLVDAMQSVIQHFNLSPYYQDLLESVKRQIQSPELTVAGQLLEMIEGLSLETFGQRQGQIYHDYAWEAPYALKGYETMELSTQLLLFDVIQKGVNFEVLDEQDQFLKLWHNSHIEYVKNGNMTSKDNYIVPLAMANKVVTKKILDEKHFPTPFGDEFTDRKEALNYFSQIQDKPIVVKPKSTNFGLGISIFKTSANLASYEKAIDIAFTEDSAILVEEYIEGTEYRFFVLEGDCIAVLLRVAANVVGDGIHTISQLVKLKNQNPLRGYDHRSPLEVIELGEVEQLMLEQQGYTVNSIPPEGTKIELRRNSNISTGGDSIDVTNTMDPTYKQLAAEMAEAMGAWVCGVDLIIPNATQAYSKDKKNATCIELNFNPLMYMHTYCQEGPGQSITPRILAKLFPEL
Protocol: In Table 1, a unit was defined as the amount of enzyme activity required to catalyze the formation of 1 μmol of product per hour. Specific activity was shown as units per mg protein. Activity was determined at 37° C. based on ADP formation in reaction mixtures containing L-glutamate and L-cysteine and using pyruvate kinase and lactate dehydrogenase to couple ADP formation to NADH oxidation, which was monitored at 340 nm.
Exp. Purif. 13, 268-276 (1998).
At set time points ranging from one to 30 minutes, 5 μl aliquots were removed and assayed for residual enzyme activity using the standard γ-GCS assay based on ADP formation.

S. agalactiae γ-GCS-GS [2] = molecular target: T1, S. agalactiae γ-GCS-GS; test: GS activity assay based on ADP formation, S. agalactiae γ-GCS-GS; details: GS activity
Protocol: Transformed cells were grown, induced, and harvested by centrifugation, and were then broken using a French pressure cell. […] The column was equilibrated with 50 mM Tris HCl buffer, pH 7.4, containing 5 mM L-glutamate, 5 mM MgCl2, and 5 mM β-mercaptoethanol, and the high-speed supernatant was loaded. After washing the column with equilibration buffer to remove proteins lacking a His-tag, the expressed His8-tagged protein was eluted using the same buffer supplemented with 200 mM imidazole. Amount of γ-GCS activity was determined as described in Example 2. […] It was observed that the purified enzyme catalyzed both the γ-GCS and the GS reactions. Since the GS-specific activity was higher than the specific activity for any known GS enzyme, it was apparent that the expressed 85 kDa S. agalactiae protein (rather than a trace impurity), accounted for the observed GS activity. Using the pREP4 auxiliary plasmid instead of the pRARE plasmid gave somewhat lower yields (325 mg total protein vs. 442 mg protein using pRARE) but the specific activities of the γ-GCS activity (870 units/mg) and GS activities (1143 units/mg) were similar.
Results for E. coli GS are from H. Gushima et al. J. Appl. Biochem. 5, 210-218 (1983). Results for rat GS are from J. L. Luo et al. Biochem. Biophys. Res. Commun. 275, 577-581 (2000). Results for human GS are from R. Njalsson et al. Biochem. Biophys. Res. Commun. 289, 80-84 (2001) and R. Njalsson et al. Biochem. J. 349, 275-279 (2000).

S. mutans γ-GCS-GS = S. mutans γ-GCS-GS (Streptococcus mutans serotype c, UniProt Q8DW15); test: γ-GCS activity of S. mutans γ-GCS-GS; details: substrate Km, γ-GCS activity
Chain of S. mutans γ-GCS-GS (Q8DW15 whole entry): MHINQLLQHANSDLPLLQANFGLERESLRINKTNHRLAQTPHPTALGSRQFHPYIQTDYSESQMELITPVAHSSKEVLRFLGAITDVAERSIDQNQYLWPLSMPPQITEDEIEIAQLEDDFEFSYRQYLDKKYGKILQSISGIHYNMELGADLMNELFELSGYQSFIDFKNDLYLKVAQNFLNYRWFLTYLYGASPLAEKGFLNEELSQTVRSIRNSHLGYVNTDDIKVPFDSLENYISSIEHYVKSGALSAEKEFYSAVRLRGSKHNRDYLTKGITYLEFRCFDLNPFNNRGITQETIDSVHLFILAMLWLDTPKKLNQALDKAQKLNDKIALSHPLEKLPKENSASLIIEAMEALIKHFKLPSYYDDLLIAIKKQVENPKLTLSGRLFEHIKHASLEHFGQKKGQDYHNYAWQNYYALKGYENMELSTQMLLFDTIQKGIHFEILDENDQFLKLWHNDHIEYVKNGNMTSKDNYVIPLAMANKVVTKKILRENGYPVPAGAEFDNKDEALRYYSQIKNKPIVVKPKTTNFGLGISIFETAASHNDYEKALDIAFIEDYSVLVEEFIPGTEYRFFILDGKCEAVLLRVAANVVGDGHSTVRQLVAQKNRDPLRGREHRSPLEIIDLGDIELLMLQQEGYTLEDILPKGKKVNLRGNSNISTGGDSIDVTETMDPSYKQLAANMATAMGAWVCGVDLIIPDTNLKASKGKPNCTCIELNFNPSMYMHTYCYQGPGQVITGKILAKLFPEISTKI
Text: 3′ and 5′ […] 3′ and introduced unique Bgl II and Hind III sites (underlined), respectively.

Human γ-GCS = molecular target: T2, Human γ-GCS (Homo sapiens, UniProt P48506); details: cited from earlier work
T2 sequence (P48506 1-637): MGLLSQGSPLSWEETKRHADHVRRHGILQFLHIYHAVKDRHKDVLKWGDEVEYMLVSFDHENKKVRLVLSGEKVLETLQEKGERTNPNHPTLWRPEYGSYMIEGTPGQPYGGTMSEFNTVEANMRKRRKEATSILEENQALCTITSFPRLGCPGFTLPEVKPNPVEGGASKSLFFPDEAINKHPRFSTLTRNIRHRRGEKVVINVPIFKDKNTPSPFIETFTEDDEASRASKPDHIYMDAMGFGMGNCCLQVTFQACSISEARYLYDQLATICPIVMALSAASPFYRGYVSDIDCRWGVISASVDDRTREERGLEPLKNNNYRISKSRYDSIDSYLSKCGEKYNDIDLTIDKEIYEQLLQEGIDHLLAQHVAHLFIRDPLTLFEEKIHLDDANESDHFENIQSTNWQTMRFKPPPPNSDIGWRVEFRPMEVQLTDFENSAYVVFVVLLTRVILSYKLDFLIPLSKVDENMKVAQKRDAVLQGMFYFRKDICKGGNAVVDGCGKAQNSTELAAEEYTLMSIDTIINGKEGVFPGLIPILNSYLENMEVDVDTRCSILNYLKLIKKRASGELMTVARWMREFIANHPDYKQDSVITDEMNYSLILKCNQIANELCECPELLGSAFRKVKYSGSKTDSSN
T2 sequence (P48507 1-274 partner): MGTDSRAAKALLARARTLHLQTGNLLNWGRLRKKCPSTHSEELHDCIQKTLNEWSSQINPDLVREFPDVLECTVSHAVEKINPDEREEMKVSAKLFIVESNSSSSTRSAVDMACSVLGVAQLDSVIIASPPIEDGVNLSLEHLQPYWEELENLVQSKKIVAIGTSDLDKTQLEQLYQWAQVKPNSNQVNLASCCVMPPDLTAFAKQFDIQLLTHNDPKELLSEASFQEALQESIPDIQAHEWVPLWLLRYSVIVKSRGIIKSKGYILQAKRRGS

Nc1ncnc2c1ncn2[C@@H]1O[C@H](COP(=O)(O)OP(=O)(O)OP(=O)(O)O)[C@@H](O)[C@H]1O [ATP]
Km (S. agalactiae γ-GCS-GS [1]; substrate Km): 66 ± 9 µM | Vmax (S. agalactiae γ-GCS-GS [1]; unit = 1 μmol product per hour): 1332 ± 120 units/mg | Vmax (S. agalactiae γ-GCS-GS [2]; unit = 1 μmol product per hour): 1662 ± 77 units/mg | Km (S. agalactiae γ-GCS-GS [2]; substrate Km): 420 ± 49 µM | Km (S. mutans γ-GCS-GS): 288 ± 105 µM | Km (Human γ-GCS; substrate Km): 400 ± 40 µM | Vmax (Human γ-GCS; unit = 1 μmol product per hour): ~1500 units/mg
